The values that follow come from patent publication US20110144353A1, “5-HYDROXY-4-AMINOMETHYL-1-C[…] (CYCLOHEPTYL)--3-ALKO[…] DERIVATIVES, PHARMA[…] SALTS THEREOF AND A METHOD FOR THE PRODUCTION THEREOF” (OBSCHESTVO S ORGANICHENNOY OTVETSTVENNOSTJU <<BINATEKH>>, priority 2008, published 2011).

Assay [1] concerns Influenza A/New Caledonia/20/99 (H1N1) Virus. As to the kind of experiment: microbe, parasite or virus in culture. It counts as cell-based. To be noted: for MIC50: Influenza A virus, H1N1, MDCK cells, concentration decreasing OD by 50%, solvent alcohol.
In assay [2] the test system is influenza A/Aichi/2/69 (H3N2) virus. As to the kind of experiment: Murine influenza pneumonia model. To be noted: for Mean Life Span / Mortality / Survival rate: mice infected with 10 LD50; for Mortality reduction: versus virus control. It counts as in vivo, mice. As for the experimental part: Determination of the efficacy of the compounds in the murine influenza pneumonia model.
The experiments were carried out on 60 white mice weighing 12-15 g. The animals were infected intranasally under light ether anesthesia with the influenza A/Aichi/2/69 (H3N2) virus (10 LD50). The compounds to be tested were administered per os in a dose of 60 or 15 mg/kg/day. The treatment was carried out according to the following scheme: 24 hours and 1 hour before infection, and then 2 times a day (at 8 o'clock in the morning and 8 o'clock in the evening) for 5 days. The chemotherapeutic activity of Arbidol and compound A in the murine influenza pneumonia model was assessed according to two criteria: the index of protection against fatal viral infection and the increase in mean life span of the treated animals as compared with the control group. The mean life span of the mice was calculated according to the following formula: Σf(d−1)/n, where f is the number of mice dying on day d (the surviving mice were also included in f; d in this case=16); n is the number of mice in the group.

≈ marks a conversion by molar mass, not a printed value.

Consider `CCOC(=O)c1c(CSc2ccccc2)n(C)c2cc(Br)c(O)c(CN(C)C)c12` [Arbidol, 1-methyl-2-phenylthiomethyl-3-carbethoxy-4-dimethylaminomethyl-5-oxy-6-bromindol], for which, in assay [1], the “Activity at 10 μg/mL” value is 89.5% and the MIC50 was found to be 6 µg/mL (≈ 12.6 µM). Also, in assay [2] (15 mg/kg/day per os), the “Mean Life Span” value stood at 7.3 days, the Mortality stood at 70%, the Survival rate was 3/10 and the Mortality reduction is on record as 20%. For the same molecule, in assay [2] (60 mg/kg/day per os), the “Mean Life Span” value was determined as 10.8 days, the Mortality amounted to 40%, the Survival rate is recorded as 6/10 and the Mortality reduction is on record as 50%.
With `CCOC(=O)c1c(C)n(C2CCCCC2)c2ccc(O)c(CN(C)C)c12` [Compound A, 5-hydroxy-4-dimethylaminomethyl-2-methyl-1-cyclohexyl-3-ethoxycarbonyl indole], in assay [1], the “Activity at 10 μg/mL” value is on record as 96.5% and the MIC50 was 5.4 µg/mL (≈ 15.1 µM). The “Activity in in vitro experiments compared with Arbidol” value in assay [1] (summary of Table 1) is given as “somewhat more active than Arbidol”. For the same molecule, the “Efficacy in animal experiments” value in assay [2] (15 mg/kg/day) is listed as “equal to the efficacy of Arbidol at a dose 4 times higher”. In addition, in assay [2] (15 mg/kg/day per os), the “Mean Life Span” value was 11.5 days, the Mortality was 40%, the Survival rate was 5/8 and the Mortality reduction worked out at 50%. In addition, the “Activity in animal experiments compared with Arbidol” value in assay [2] (summary of Table 2) is recorded as “significantly more active than Arbidol”.
